Test results published in ChEMBL document CHEMBL1649133, “In vitro comparison of the efficacies of natamycin and silver nitrate against ocular fungi” (2009).
Values after ≈ are worked out from the molar mass of the structure shown.

Legend:
Format in all cases: functional
Aspergillus niger = test: Antifungal activity against 0.4x10'4 to 5x10^4 CFU/ml Aspergillus niger after 48 hrs by CLSI M38-A broth microdilution method
Aspergillus oryzae = test: Antifungal activity against 0.4x10'4 to 5x10^4 CFU/ml Aspergillus oryzae after 48 hrs by CLSI M38-A broth microdilution method
Aspergillus versicolor = test: Antifungal activity against 0.4x10'4 to 5x10^4 CFU/ml Aspergillus versicolor after 48 hrs by CLSI M38-A broth microdilution method
Aspergillus fumigatus = test: Antifungal activity against 0.4x10'4 to 5x10^4 CFU/ml Aspergillus fumigatus after 48 hrs by CLSI M38-A broth microdilution method
Fusarium solani = test: Antifungal activity against 0.4x10'4 to 5x10^4 CFU/ml Fusarium solani after 48 hrs by CLSI M38-A broth microdilution method
Fusarium oxysporum = test: Antifungal activity against 0.4x10'4 to 5x10^4 CFU/ml Fusarium oxysporum after 48 hrs by CLSI M38-A broth microdilution method
Fusarium sp. = test: Antifungal activity against 0.4x10'4 to 5x10^4 CFU/ml Fusarium sp. after 48 hrs by CLSI M38-A broth microdilution method
Fusarium poae = test: Antifungal activity against 0.4x10'4 to 5x10^4 CFU/ml Fusarium poae after 48 hrs by CLSI M38-A broth microdilution method
Aspergillus flavus = test: Antifungal activity against 0.4x10'4 to 5x10^4 CFU/ml Aspergillus flavus after 48 hrs by CLSI M38-A broth microdilution method
Fusarium verticillioides = test: Antifungal activity against 0.4x10'4 to 5x10^4 CFU/ml Fusarium moniliforme after 48 hrs by CLSI M38-A broth microdilution method
Aspergillus sp. = test: Antifungal activity against 0.4x10'4 to 5x10^4 CFU/ml Aspergillus sp. after 48 hrs by CLSI M38-A broth microdilution method
Fusarium avenaceum = test: Antifungal activity against 0.4x10'4 to 5x10^4 CFU/ml Fusarium avenaceum after 48 hrs by CLSI M38-A broth microdilution method

## C[C@@H]1C/C=C/C=C/C=C/C=C/[C@H](O[C@@H]2O[C@H](C)[C@@H](O)[C@H](N)[C@@H]2O)C[C@@H]2O[C@](O)(C[C@@H](O)C[C@H]3O[C@@H]3/C=C/C(=O)O1)C[C@H](O)[C@H]2C(=O)O [NATAMYCIN]
Aspergillus niger
  MIC: 0.25 µg/mL (≈ 0.376 µM)
Aspergillus oryzae
  MIC50: 32 µg/mL (≈ 48.1 µM)
  MIC90: 32 µg/mL (≈ 48.1 µM)
Aspergillus versicolor
  MIC50: 8 µg/mL (≈ 12 µM)
  MIC90: 32 µg/mL (≈ 48.1 µM)
Aspergillus fumigatus
  MIC: 4 µg/mL (≈ 6.01 µM)
  MIC50: 4 µg/mL (≈ 6.01 µM)
  MIC90: 4 µg/mL (≈ 6.01 µM)
Fusarium solani
  MIC: 4 µg/mL (≈ 6.01 µM)
  MIC50: 4 µg/mL (≈ 6.01 µM)
  MIC90: 8 µg/mL (≈ 12 µM)
Fusarium oxysporum
  MIC: 4 µg/mL (≈ 6.01 µM)
Fusarium sp.
  MIC: 4 µg/mL (≈ 6.01 µM)
  MIC50: 4 µg/mL (≈ 6.01 µM)
  MIC90: 8 µg/mL (≈ 12 µM)
Fusarium poae
  MIC: 4 µg/mL (≈ 6.01 µM)
Aspergillus flavus
  MIC50: 32 µg/mL (≈ 48.1 µM)
  MIC90: 32 µg/mL (≈ 48.1 µM)
Fusarium verticillioides
  MIC: 4 µg/mL (≈ 6.01 µM)
  MIC50: 4 µg/mL (≈ 6.01 µM)
  MIC90: 8 µg/mL (≈ 12 µM)
Aspergillus sp.
  MIC50: 32 µg/mL (≈ 48.1 µM)
  MIC90: 32 µg/mL (≈ 48.1 µM)
Fusarium avenaceum
  MIC50: 8 µg/mL (≈ 12 µM)
  MIC90: 8 µg/mL (≈ 12 µM)
